# Data as given in US8461178B2, “Naphthyridine derivatives and the use thereof as kinase inhibitors” (Aeterna Zentaris GmbH, priority 2009, dated 2013).
# Where two headings read alike, the source gives them in different places.
# Key:
# cRaf-Mek1-Erk2 = cRaf-Mek1-Erk2 (Homo sapiens, UniProt P04049+P28482+Q02750); conditions: read-out: IC50 cRaf-Mek-Erk; at 10 μM ATP
# Protocol: The inhibitory effect of the inventive compounds was tested on various human serine/threonine kinases and tyrosine kinases in enzymatic assays. Recombinant human kinases, for example Aurora-B, cRaf-Mek1-Erk2, Erk2, Pim-1, HIPK1, KDR, TrkA, Yes, c-Abl and others were used, in some cases as full-length kinases, in some cases as truncated fragments—but at least consisting of the functional kinase domains. The commercial kinase proteins (Proqinase, Millipore) were used as recombinant fusion proteins with GST (glutathione S-transferase) tag or His tag. Depending on the substrate type, the different kinase reactions were quantified by suitable ALPHA™ beads (PerkinElmer).
# The calculation of % inhibition values per substance concentration was done by means of the following formula from the raw data determined in the Envision reader:
# (§1) The controls were determined 16 fold. 0% controls contained no ATP whereas the 100% controls contained no test substance. The IC50 values were determined with GraphPadPrism.
# Erk2 = molecular target: T1, Erk2 (Homo sapiens, UniProt P28482); assay: Cell-free kinase assay (ALPHA technology), Erk2; type: biochemical; conditions: at 10 μM ATP
# T1 construct: in some cases as full-length kinases, in some cases as truncated fragments
# T1 sequence (P28482 whole entry, the tested form may be a part): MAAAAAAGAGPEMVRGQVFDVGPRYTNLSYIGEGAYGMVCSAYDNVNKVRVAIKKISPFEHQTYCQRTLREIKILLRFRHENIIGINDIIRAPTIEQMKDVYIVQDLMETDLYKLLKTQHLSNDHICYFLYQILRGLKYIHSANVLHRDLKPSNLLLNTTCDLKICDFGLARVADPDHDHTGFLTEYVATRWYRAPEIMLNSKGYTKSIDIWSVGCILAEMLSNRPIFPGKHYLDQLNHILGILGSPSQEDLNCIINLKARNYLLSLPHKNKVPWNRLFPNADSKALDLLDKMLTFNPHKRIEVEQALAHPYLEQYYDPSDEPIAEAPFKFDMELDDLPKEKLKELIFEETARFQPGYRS
# Protocol: as §1
# Aurora-B = molecular target: T2, Aurora-B (Homo sapiens, UniProt Q96GD4); assay: Cell-free kinase assay (ALPHA technology), Aurora-B; type: biochemical
# T2 construct: in some cases as full-length kinases, in some cases as truncated fragments; purchased Upstate/Millipore #14-835
# T2 sequence (Q96GD4 whole entry, the tested form may be a part): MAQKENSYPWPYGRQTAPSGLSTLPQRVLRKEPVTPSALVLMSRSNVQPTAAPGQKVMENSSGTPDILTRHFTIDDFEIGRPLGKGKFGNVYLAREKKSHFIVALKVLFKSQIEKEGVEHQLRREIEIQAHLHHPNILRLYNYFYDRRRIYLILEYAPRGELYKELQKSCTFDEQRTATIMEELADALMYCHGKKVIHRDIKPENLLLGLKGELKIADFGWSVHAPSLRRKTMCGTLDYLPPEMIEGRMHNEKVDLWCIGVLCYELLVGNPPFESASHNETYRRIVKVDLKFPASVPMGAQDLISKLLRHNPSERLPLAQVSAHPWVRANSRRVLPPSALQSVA
# Protocol: The kinase reaction was stopped by adding 10 μl of the ALPHA bead mix (10 μg/ml, #6760617/PerkinElmer), pre-incubated with anti-phospho PLK antibody (100 pM, #5070, Cell Signaling), in 25 mM Tris, 200 mM NaCl, 100 mM EDTA and 0.3% BSA, and left to stand overnight. The luminiscence was detected the next morning in a Envision instrument (Perkin Elmer). […] 0% controls contained no ATP whereas the 100% controls contained no test substance. The IC50 values were determined with GraphPadPrism.
# [1] = at 10 μM ATP, read-out: IC50 Aurora-B
# Chain of cRaf-Mek1-Erk2 (P04049 whole entry, the tested form may be a part): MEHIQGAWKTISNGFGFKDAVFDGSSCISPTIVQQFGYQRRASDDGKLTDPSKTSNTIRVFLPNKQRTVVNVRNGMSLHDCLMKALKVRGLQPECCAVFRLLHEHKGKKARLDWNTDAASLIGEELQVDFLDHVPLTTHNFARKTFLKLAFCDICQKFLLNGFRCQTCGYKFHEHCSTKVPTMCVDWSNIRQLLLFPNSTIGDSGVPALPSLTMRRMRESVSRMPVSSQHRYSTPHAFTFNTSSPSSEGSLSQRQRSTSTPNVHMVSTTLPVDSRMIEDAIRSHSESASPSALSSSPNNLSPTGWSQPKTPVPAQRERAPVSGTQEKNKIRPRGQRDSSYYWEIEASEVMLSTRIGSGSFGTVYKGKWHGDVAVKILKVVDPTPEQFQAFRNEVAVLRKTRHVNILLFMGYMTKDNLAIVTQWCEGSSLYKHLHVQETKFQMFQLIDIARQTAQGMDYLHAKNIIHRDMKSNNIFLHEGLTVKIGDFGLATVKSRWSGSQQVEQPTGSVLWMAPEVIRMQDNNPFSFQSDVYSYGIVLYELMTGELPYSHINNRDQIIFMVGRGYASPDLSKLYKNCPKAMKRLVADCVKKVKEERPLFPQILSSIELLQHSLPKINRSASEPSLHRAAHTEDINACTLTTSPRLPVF
# Chain of cRaf-Mek1-Erk2 (Q02750 whole entry, the tested form may be a part): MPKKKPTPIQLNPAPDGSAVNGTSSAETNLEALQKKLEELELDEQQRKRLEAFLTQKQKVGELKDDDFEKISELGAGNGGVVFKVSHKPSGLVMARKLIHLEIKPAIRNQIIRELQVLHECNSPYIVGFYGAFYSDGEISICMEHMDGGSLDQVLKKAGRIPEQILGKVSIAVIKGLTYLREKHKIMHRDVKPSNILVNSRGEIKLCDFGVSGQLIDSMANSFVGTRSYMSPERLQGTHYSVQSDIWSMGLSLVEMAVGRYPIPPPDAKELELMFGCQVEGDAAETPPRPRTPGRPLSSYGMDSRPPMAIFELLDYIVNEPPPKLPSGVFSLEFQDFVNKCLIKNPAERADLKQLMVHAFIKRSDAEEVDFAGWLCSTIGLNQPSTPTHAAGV
# Chain of cRaf-Mek1-Erk2 (P28482 2-360): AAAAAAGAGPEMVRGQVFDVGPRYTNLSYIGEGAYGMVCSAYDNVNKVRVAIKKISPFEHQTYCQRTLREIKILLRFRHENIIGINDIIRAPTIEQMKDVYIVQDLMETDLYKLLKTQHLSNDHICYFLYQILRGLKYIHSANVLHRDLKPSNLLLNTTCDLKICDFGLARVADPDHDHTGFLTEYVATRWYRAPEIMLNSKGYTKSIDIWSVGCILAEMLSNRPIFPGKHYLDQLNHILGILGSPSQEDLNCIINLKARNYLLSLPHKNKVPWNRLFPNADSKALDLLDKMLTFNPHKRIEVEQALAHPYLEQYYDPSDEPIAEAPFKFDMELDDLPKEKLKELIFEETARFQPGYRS
Structure (SMILES),IC50 (cRaf-Mek1-Erk2) [µM],IC50 (Erk2) [µM],melting point [°C],IC50 (Aurora-B; [1]) [µM],IC50 (Aurora-B; read-out: IC50 values against Aurora-B) [µM]
"CCCCCCNC(=O)Nc1ccnc2cc(-c3cnn(C)c3)cnc12 [Compound 25, 1-Hexyl-3-[7-(1-methyl-1H-pyrazol-4-yl)-[1,5]naphthyridin-4-yl]-urea]",> 100,> 100,188 to 189,0.885,
"Cn1cc(-c2cnc3c(NC(=O)NCc4ccccc4)ccnc3c2)cn1 [Compound 31, 1-Benzyl-3-[7-(1-methyl-1H-pyrazol-4-yl)-[1,5]naphthyridin-4-yl]-urea]",> 100,> 100,237 to 238,0.066,
"CCCCNC(=O)Nc1ccnc2cc(-c3cnn(C)c3)cnc12 [Compound 32, 1-Butyl-3-[7-(1-methyl-1H-pyrazol-4-yl)-[1,5]naphthyridin-4-yl]-urea]",12.8,> 31.6,219 to 220,0.164,
"Cn1cc(-c2cnc3c(NC(=O)NCCc4ccccc4)ccnc3c2)cn1 [Compound 33, 1-[7-(1-Methyl-1H-pyrazol-4-yl)-[1,5]naphthyridin-4-yl]-3-phenethyl-urea]",16.6,> 100,222 to 223,0.086,
"Cn1cc(-c2cnc3c(NC(=O)NC4CCCC4)ccnc3c2)cn1 [Compound 34, 1-Cyclopentyl-3-[7-(1-methyl-1H-pyrazol-4-yl)-[1,5]naphthyridin-4-yl]-urea]",0.676,4.08,207 to 208,0.108,
"O=C(Nc1ccnc2cc(-c3cn[nH]c3)cnc12)NC1CC1 [Compound 35, 1-Cyclopropyl-3-[7-(1H-pyrazol-4-yl)-[1,5]naphthyridin-4-yl]-urea]",4.65,> 100,229 to 231,0.085,
"O=C(Nc1ccnc2cc(-c3ccccc3)cnc12)NC1CC1 [Compound 39, 1-Cyclopropyl-3-(7-phenyl-[1,5]naphthyridin-4-yl)-urea]",20.3,> 100,188 to 190,0.889,
"O=C(Nc1ccnc2cc(-c3ccc4[nH]ccc4c3)cnc12)NC1CC1 [Compound 40, 1-Cyclopropyl-3-[7-(1H-indol-5-yl)-[1,5]naphthyridin-4-yl]-urea]",> 100,> 100,214 to 215,2.12,

# Continued by falling IC50 (cRaf-Mek1-Erk2), values first:
IC50 (cRaf-Mek1-Erk2) [µM],IC50 (Erk2) [µM],melting point [°C],IC50 (Aurora-B; [1]) [µM],IC50 (Aurora-B; read-out: IC50 values against Aurora-B) [µM],Structure (SMILES)
26.2,> 100,229 to 230,0.784,,"Cn1cc(-c2cnc3c(NC(=O)NC4CC(F)(F)C4)ccnc3c2)cn1 [Compound 24, 1-(3,3-Difluoro-cyclobutyl)-3-[7-(1-methyl-1H-pyrazol-4-yl)-[1,5]naphthyridin-4-yl]-urea]"
10.3,> 100,226 to 229,0.935,,"O=C(Nc1ccnc2cc(-c3ccnc(F)c3)cnc12)NC1CC1 [Compound 37, 1-Cyclopropyl-3-[7-(2-fluoro-pyridin-4-yl)-[1,5]naphthyridin-4-yl]-urea]"
3.85,> 100,228 to 229,0.103,,"O=C(Nc1ccnc2cc(-c3ccsc3)cnc12)NC1CC1 [Compound 36, 1-Cyclopropyl-3-(7-thiophen-3-yl-[1,5]naphthyridin-4-yl)-urea]"
2.81,> 100,127 to 129,0.028,< 0.1,"O=C(Nc1ccnc2cc(-c3cnn(CCN4CCOCC4)c3)cnc12)NC1CC1 [Compound 38, 1-Cyclopropyl-3-{7-[1-(2-morpholin-4-yl-ethyl)-1H-pyrazol-4-yl]-[1,5]naphthyridin-4-yl}-urea]"
